In paper PMC7864192 (Cancers, 2021):
Read-outs that look alike come from different tables or passages of the source.

Tests used:
[1] = tested on: GCPA096 T1.II patient-derived AGCT cell line; assay: Cell viability drug screen (Cell Titer Glo 2.0, 72 h), mono- and combination therapy, GCPA096T1.II; conditions: GCPA096T1II
Experimental: (§1) Cell lines were seeded at a density of 500 cells/well in 40 uL in 384-well plates (Corning, NY, USA) with the Multidrop™ cell dispenser (Thermo Fischer Scientific, Waltham, MA, USA) and sealed with Breathe-Easy® membrane (Sigma-Aldrich, St. Louis, MO, USA) to prevent evaporation. The SVOG-3e line was seeded at 1000 cells/well due to contact-dependent growth requirements. For each cell line, three biological repeats and two technical repeats each were performed in order to ensure the validity of the drug screens. […] Subsequently, 11 drugs and 12 drug combinations were dispensed and all wells (excluding blanks and non-DMSO control wells) were normalized to 1% DMSO using the HP Tecan D300e Digital Dispenser (Hewlett-Packard, Palo Alto, CA, USA). All drugs were applied in linear concentration ranges (Table 2), including 16 data points to enable combination drug testing at constant ratios (Table 3). Next, the plates were covered with the Breathe-Easy membrane and incubated. After 72 h, the Multidrop dispensed 15 uL per well of Cell Titer Glo 2.0 (Thermo Fischer Scientific, Waltham, MA, USA) and plates were incubated in the dark for 10 min. After incubation, luminescence excitation was assessed in the Spectramax reader (Molecular Devices, San Jose, CA, USA) (top read, luminescence excitation at 500 nm) and raw data were processed in Microsoft Excel to subtract background luminescence. […] Screens with a Z-factor value of >0.5 were used for further analysis.
(§2) Overall cell survival (in %) was plotted against the drug concentration range of each drug (in log10[μM]) using GraphPad Prism 8.3.1. Values that exceeded 100% survival (within +20% biological deviation) were normalized to 100% survival. Similarly, values below 0% cell survival (within −20% biological deviation) were normalized to 0% survival. Values exceeding this deviation were excluded. Dose–response curves were obtained using the model “log(inhibitor) vs. variable slope (normalized response)” to fit the dose–response curves and R^2 values were used to indicate how well the model fit the data (Supplementary Materials Figures S4 and S5). […] The maximum plasma concentration (Cmax) and the plasma concentration at steady state (Css) were used as toxicity thresholds. The Cmax was utilized for drugs in which short, high-dosage time courses are required, while the Css was used for maintenance therapy regimes such as anti-hormonal treatment. […] The IC50 values were calculated based on the Chou–Talalay method using Compusyn software [55]. For anti-hormonal treatment, mostly provided as maintenance therapy, we used IC10 values in addition to the IC50.
(§3) In addition to the 11 monotherapies, 12 drug combinations were tested (Table 3) simultaneously with the individual drug treatments in the same 384-well plate. […] Synergy was evaluated using the mass action law, a systematic analysis assessing dose–response dynamics in a cost-effective manner [56, 57]. The combination index (CI) was used to indicate antagonistic (CI > 1) additive (CI = 1) and synergistic (CI < 1) effects [55].

[2] = tested on: GCPA028 T1.II patient-derived AGCT cell line; assay: Cell viability drug screen (Cell Titer Glo 2.0, 72 h), mono- and combination therapy, GCPA028
Experimental: as §1, §2, §3

[3] = tested on: GCPA096 T1.V patient-derived AGCT cell line; assay: Cell viability drug screen (Cell Titer Glo 2.0, 72 h), mono- and combination therapy, GCPA096T1.V; conditions: GCPA096T1V
[4] = tested on: GCPA113 T1.III patient-derived AGCT cell line; assay: Cell viability drug screen (Cell Titer Glo 2.0, 72 h), mono- and combination therapy, GCPA113T1.III; conditions: GCPA113T1III
[5] = tested on: GCPA096 T1.XV patient-derived AGCT cell line; assay: Cell viability drug screen (Cell Titer Glo 2.0, 72 h), mono- and combination therapy, GCPA096T1.XV; conditions: GCPA096T1XV
Experimental: (§4) Cell lines were seeded at a density of 500 cells/well in 40 uL in 384-well plates (Corning, NY, USA) with the Multidrop™ cell dispenser (Thermo Fischer Scientific, Waltham, MA, USA) and sealed with Breathe-Easy® membrane (Sigma-Aldrich, St. Louis, MO, USA) to prevent evaporation. The SVOG-3e line was seeded at 1000 cells/well due to contact-dependent growth requirements. For each cell line, three biological repeats and two technical repeats each were performed in order to ensure the validity of the drug screens. […] Subsequently, 11 drugs and 12 drug combinations were dispensed and all wells (excluding blanks and non-DMSO control wells) were normalized to 1% DMSO using the HP Tecan D300e Digital Dispenser (Hewlett-Packard, Palo Alto, CA, USA). All drugs were applied in linear concentration ranges (Table 2), including 16 data points to enable combination drug testing at constant ratios (Table 3). Next, the plates were covered with the Breathe-Easy membrane and incubated. After 72 h, the Multidrop dispensed 15 uL per well of Cell Titer Glo 2.0 (Thermo Fischer Scientific, Waltham, MA, USA) and plates were incubated in the dark for 10 min. After incubation, luminescence excitation was assessed in the Spectramax reader (Molecular Devices, San Jose, CA, USA) (top read, luminescence excitation at 500 nm) and raw data were processed in Microsoft Excel to subtract background luminescence. The Z-factor, a mathematical method used to quantify the quality of a drug screen based on the calculation of the separation band between the values of the positive and negative controls, was utilized to assess the quality of drug screens [54]. Screens with a Z-factor value of >0.5 were used for further analysis.
as §2, §3

[6] = tested on: GCPA096 T1.XVI patient-derived AGCT cell line; assay: Cell viability drug screen (Cell Titer Glo 2.0, 72 h), mono- and combination therapy, GCPA096T1.XVI; conditions: GCPA096T1XVI
Experimental: as §1, §2, §3

[7] = tested on: GCPA096 T1.I patient-derived AGCT cell line; assay: Cell viability drug screen (Cell Titer Glo 2.0, 72 h), mono- and combination therapy, GCPA096T1.I; conditions: GCPA096T1I
Experimental: (§5) Cell lines were seeded at a density of 500 cells/well in 40 uL in 384-well plates (Corning, NY, USA) with the Multidrop™ cell dispenser (Thermo Fischer Scientific, Waltham, MA, USA) and sealed with Breathe-Easy® membrane (Sigma-Aldrich, St. Louis, MO, USA) to prevent evaporation. […] For each cell line, three biological repeats and two technical repeats each were performed in order to ensure the validity of the drug screens. […] Subsequently, 11 drugs and 12 drug combinations were dispensed and all wells (excluding blanks and non-DMSO control wells) were normalized to 1% DMSO using the HP Tecan D300e Digital Dispenser (Hewlett-Packard, Palo Alto, CA, USA). […] Next, the plates were covered with the Breathe-Easy membrane and incubated. After 72 h, the Multidrop dispensed 15 uL per well of Cell Titer Glo 2.0 (Thermo Fischer Scientific, Waltham, MA, USA) and plates were incubated in the dark for 10 min. After incubation, luminescence excitation was assessed in the Spectramax reader (Molecular Devices, San Jose, CA, USA) (top read, luminescence excitation at 500 nm) and raw data were processed in Microsoft Excel to subtract background luminescence. The Z-factor, a mathematical method used to quantify the quality of a drug screen based on the calculation of the separation band between the values of the positive and negative controls, was utilized to assess the quality of drug screens [54]. Screens with a Z-factor value of >0.5 were used for further analysis.
(§6) Overall cell survival (in %) was plotted against the drug concentration range of each drug (in log10[μM]) using GraphPad Prism 8.3.1. Values that exceeded 100% survival (within +20% biological deviation) were normalized to 100% survival. Similarly, values below 0% cell survival (within −20% biological deviation) were normalized to 0% survival. Values exceeding this deviation were excluded. Dose–response curves were obtained using the model “log(inhibitor) vs. variable slope (normalized response)” to fit the dose–response curves and R^2 values were used to indicate how well the model fit the data (Supplementary Materials Figures S4 and S5). […] The IC50 values were calculated based on the Chou–Talalay method using Compusyn software [55]. For anti-hormonal treatment, mostly provided as maintenance therapy, we used IC10 values in addition to the IC50.
as §3

[8] = tested on: GCPA113 T1.I patient-derived AGCT cell line; assay: Cell viability drug screen (Cell Titer Glo 2.0, 72 h), mono- and combination therapy, GCPA113T1.I; conditions: GCPA113T1I
[9] = cited from earlier work
[10] = tested on: GCPA007 T2.I patient-derived AGCT cell line; assay: Cell viability drug screen (Cell Titer Glo 2.0, 72 h), mono- and combination therapy, GCPA007T2.I; conditions: GCPA007T2I
Experimental: as §1, §2, §3

[11] = tested on: GCPA007 T2.IV patient-derived AGCT cell line; assay: Cell viability drug screen (Cell Titer Glo 2.0, 72 h), mono- and combination therapy, GCPA007T2.IV; conditions: GCPA007T2IV
Experimental: as §5, §6, §3

[12] = tested on: GCPA113 T1.II patient-derived AGCT cell line; assay: Cell viability drug screen (Cell Titer Glo 2.0, 72 h), mono- and combination therapy, GCPA113T1.II; conditions: GCPA113T1II
Experimental: as §5, §6, §3

[13] = tested on: KGN cells (AGCT cell line); assay: Cell viability drug screen (Cell Titer Glo 2.0, 72 h), mono- and combination therapy, KGN
Experimental: KGN was cultured in conditions identical to AGCT-patient-derived cell lines.
as §1, §6

[14] = tested on: GCPA108 T3.IV patient-derived AGCT cell line; assay: Cell viability drug screen (Cell Titer Glo 2.0, 72 h), mono- and combination therapy, GCPA108T3.IV; conditions: GCPA108T3IV
Experimental: as §4, §2, §3

[15] = tested on: AGCT cell lines; assay: Cell viability drug screen (72 h), summary over AGCT cell lines (12 patient-derived, with or without KGN); assay type: cell-based, human; conditions: median over AGCT cell lines; read-out: median IC50 in monotherapy
Experimental: as §4, §2, §3

[16] = drug within Carbo+Pacli+6thio2dG
[17] = drug within Carbo+Pacli+Alpelisib
[18] = read-out: IC50 in monotherapy, single drug, 72 h, unit not given (compared with Cmax/Css in uM)
[19] = read-out: IC50 in monotherapy, monotherapy
[20] = in combination Carbo+Pacli+6thio2dG
[21] = in combination Carbo+Pacli+Alpelisib

SMILES: N.N.O=C([O-])C1(C(=O)[O-])CCC1.[Pt+2] [Carboplatin]
- DRI (Fa=0,5) ([1]; drug within Carbo+Pacli): 1.11
- DRI (Fa=0,5) [1, 16]: 2.3
- DRI (Fa=0,5) [1, 17]: 5.75
- IC50 [1, 18]: 168 µM
- DRI (Fa=0,5) ([2]; GCPA028, in combination Carbo+Pacli): 0.51
- DRI (Fa=0,5) ([2]; GCPA028, in combination Carbo+Pacli+6thio2dG): 0.29
- DRI (Fa=0,5) ([2]; GCPA028, in combination Carbo+Pacli+Alpelisib): 41.26
- IC50 ([2]; read-out: IC50 in monotherapy, GCPA028, monotherapy): > 500 µM
- DRI (Fa=0,5) ([3]; drug within Carbo+Pacli): 1.19
- DRI (Fa=0,5) [3, 16]: 4.7
- DRI (Fa=0,5) [3, 17]: 17.09
- IC50 [3, 18]: > 500 µM
- DRI (Fa=0,5) ([4]; drug within Carbo+Pacli): 1.76
- DRI (Fa=0,5) [4, 16]: 1.97
- DRI (Fa=0,5) [4, 17]: 35.75
- IC50 [4, 19]: 358 µM
- DRI (Fa=0,5) ([5]; drug within Carbo+Pacli): 0.85
- DRI (Fa=0,5) [5, 16]: 2.35
- DRI (Fa=0,5) [5, 17]: 7.71
- IC50 [5, 18]: 265 µM
- DRI (Fa=0,5) ([6]; in Carbo+Pacli): 0.64
- DRI (Fa=0,5) ([6]; in Carbo+Pacli+6thio2dG): 0.59
- DRI (Fa=0,5) ([6]; in Carbo+Pacli+Alpelisib): 2.39
- IC50 [6, 19]: 144 µM
- DRI (Fa=0,5) ([7]; in combination Carbo+Pacli): 1.8
- DRI (Fa=0,5) [7, 20]: 2.92
- DRI (Fa=0,5) [7, 21]: 7.45
- IC50 [7, 19]: 257 µM
- DRI (Fa=0,5) ([8]; in Carbo+Pacli): 1.12
- DRI (Fa=0,5) ([8]; in Carbo+Pacli+6thio2dG): 2.55
- DRI (Fa=0,5) ([8]; in Carbo+Pacli+Alpelisib): 32.56
- IC50 [8, 19]: > 500 µM
- Cmax/Css plasma (Log 10) ([9]; human maximum or steady state plasma concentration, log10 of the uM value): 2.13 Log 10
- Cmax/Css plasma (Log 10) ([9]; human plasma Cmax/Css, log10 of uM value, from phase I/II clinical trials): 2.13 Log 10
- Cmax/Css plasma (Log 10) ([9]; human plasma maximum/steady state concentration, ref phase I/II clinical trials): 2.13 Log 10
- Cmax/Css plasma (Log 10) ([9]; human plasma, maximum or steady state concentration, log10 of uM value): 2.13
- Cmax/Css plasma (Log 10) ([9]; human plasma, log10 of uM, phase I/II trials): 2.13
- Cmax ([9]; read-out: Cmax (maximum drug concentration achieved in plasma), human plasma, phase I/II studies): 135 µM
- Cmax ([9]; read-out: Cmax/Css plasma, human maximum or steady state plasma concentration): 135 µM
- Cmax ([9]; read-out: Cmax/Css plasma, human plasma Cmax/Css, from phase I/II clinical trials): 135 µM
- Cmax ([9]; read-out: Cmax/Css plasma, human plasma maximum/steady state concentration, ref phase I/II clinical trials): 135 µM
- Cmax ([9]; read-out: Cmax/Css plasma, human plasma, maximum or steady state concentration): 135 µM
- Cmax ([9]; read-out: Cmax/Css plasma, human plasma, phase I/II trials): 135 µM
- DRI (Fa=0,5) ([10]; in Carbo+Pacli (10:1)): 4.425
- DRI (Fa=0,5) ([10]; in Carbo+Pacli+6thio2dG (10:1:1)): 2.54
- DRI (Fa=0,5) ([10]; in Carbo+Pacli+Alpelisib (10:1:2)): 230.67
- IC50 ([10]; read-out: IC50 in monotherapy, cell viability 72 h after drug application): > 500 µM
- DRI (Fa=0,5) ([11]; in combination Carbo+Pacli): 2.73
- DRI (Fa=0,5) [11, 20]: 1.36
- DRI (Fa=0,5) [11, 21]: 37.92
- IC50 [11, 19]: > 500 µM
- DRI (Fa=0,5) ([12]; drug within Carbo+Pacli): 1.06
- DRI (Fa=0,5) [12, 16]: 1.33
- DRI (Fa=0,5) [12, 17]: 4.67
- IC50 [12, 19]: 276 µM
- DRI (Fa=0,5) ([13]; drug within Carbo+Pacli): 5.1507
- DRI (Fa=0,5) [13, 16]: 2.192
- DRI (Fa=0,5) [13, 17]: 26.6538
- IC50 [13, 19]: 297 µM
- DRI (Fa=0,5) ([14]; in Carbo+Pacli): 1
- DRI (Fa=0,5) ([14]; in Carbo+Pacli+6thio2dG): 0.7515
- DRI (Fa=0,5) ([14]; in Carbo+Pacli+Alpelisib): 9.921
- IC50 [15]: 343 µM
